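48-hour exposure; five concentrations; linearly interpolated endpoints. Definition used: TGI = concentration required for complete inhibition of growth.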 Bounds are passed on as bounds.

This is an account of results in PubChem BioAssay (NCI).

Among the test systems are SW-620 colon; OVCAR-5 ovarian; SK-OV-3 ovarian; MOLT-4 leukemia; MDA-MB-435; 786-0 renal; RXF 393 renal; OVCAR-3 ovarian; SNB-75 CNS; HCT-15 colon.
Holding throughout (assay): growth of human tumour cells (NCI), 48 h

With `C=C(C)[C@@H](O)[C@H](O)C[C@H](C)C1CC[C@]2(C)C1=CC[C@@H]1[C@@]3(C)CC[C@@H](OC(C)=O)C(C)(C)[C@@H]3C[C@@H](OC3OC(COC(C)=O)C(O)C(O)C3O)[C@]12C` (stereo not given in full), the TGI was 12.3 µM in the test on SW-620 colon; 4.43 µM in the test with OVCAR-5 ovarian; 10.4 µM with SK-OV-3 ovarian; 4.5 µM in the test on MOLT-4 leukemia; 4.42 µM in the test with MDA-MB-435; 11.4 µM in the test with 786-0 renal. The TGI with RXF 393 renal was determined as 4.49 µM; in the test with OVCAR-3 ovarian, 4.79 µM; in the test with SNB-75 CNS, 8.32 µM; with HCT-15 colon it was 11.7 µM.
Take `COc1cc(C2c3cc4c(cc3OC(NNc3ccccc3)C2C)OCO4)cc(OC)c1OC` (stereo not given): the TGI is more than 100 µM with SW-620 colon; more than 81 µM with OVCAR-5 ovarian; more than 100 µM with SK-OV-3 ovarian; more than 47.3 µM in the test on MOLT-4 leukemia; 1.31 µM in the test with MDA-MB-435; 12.8 µM in the test with 786-0 renal. Moreover, the TGI with RXF 393 renal is more than 94.3 µM; in the test on OVCAR-3 ovarian, 19.2 µM; in the test on SNB-75 CNS, more than 62.7 µM.
Regarding `CCC(=O)Nc1cccc(N=Cc2ccc(OC(=O)/C=C\c3ccccc3)cc2)c1`, the TGI with SW-620 colon, in the test on OVCAR-5 ovarian, in the test with SK-OV-3 ovarian, in the test with MOLT-4 leukemia, in the test with MDA-MB-435 and with 786-0 renal was more than 75 µM throughout. Besides, the TGI in the test on RXF 393 renal was 48.1 µM; in the test on OVCAR-3 ovarian, more than 75 µM; in the test with SNB-75 CNS it was more than 75 µM; in the test on HCT-15 colon, more than 75 µM.
As to `O=C1/C(=C/c2ccc(O)cc2)CCCC1CN1CCCCC1` (stereo not given), the TGI in the test with SW-620 colon turned out to be 3.8 µM; in the test on OVCAR-5 ovarian, 30.8 µM; with SK-OV-3 ovarian, 30.4 µM; with MOLT-4 leukemia, 4.82 µM; in the test on MDA-MB-435, 21.3 µM; in the test with 786-0 renal it was 2.38 µM. Moreover, the TGI in the test with RXF 393 renal came to 27.1 µM; in the test with OVCAR-3 ovarian, 14.9 µM; with SNB-75 CNS it was 22.5 µM; with HCT-15 colon, 2.71 µM.
On to `COC(=O)Nc1nc2ccc(S(=O)(=O)Nc3ccccn3)cc2[nH]1`, for which the TGI is 66.6 µM in the test on SW-620 colon; more than 100 µM with OVCAR-5 ovarian; more than 100 µM in the test on SK-OV-3 ovarian; 64 µM with MOLT-4 leukemia; 44.5 µM with MDA-MB-435; more than 100 µM in the test with 786-0 renal. Moreover, the TGI is more than 100 µM with RXF 393 renal, more than 100 µM with OVCAR-3 ovarian, 71.1 µM with SNB-75 CNS and more than 100 µM with HCT-15 colon.
In the case of `Cc1ccc(S(=O)(=O)N2CCC[C@@H]2C(=O)O[C@@H]2CCC3CC=CC32)cc1` (stereo not given in full), the TGI in the test on SW-620 colon was more than 100 µM; in the test on OVCAR-5 ovarian, more than 100 µM; in the test with SK-OV-3 ovarian, 48.3 µM; with MOLT-4 leukemia it was more than 100 µM; in the test with MDA-MB-435 it was more than 100 µM; in the test on 786-0 renal it was 55.4 µM. Also, the TGI is 66.5 µM with RXF 393 renal, 38.8 µM with OVCAR-3 ovarian, more than 100 µM in the test on SNB-75 CNS and more than 100 µM in the test with HCT-15 colon.
On to `O=c1[nH]c(=O)c2ncn(-c3ccc([N+](=O)[O-])cn3)c2[nH]1`, for which the TGI with SW-620 colon, with OVCAR-5 ovarian, in the test on SK-OV-3 ovarian, in the test on MOLT-4 leukemia, in the test with MDA-MB-435 and in the test on 786-0 renal was more than 100 µM throughout. The TGI in the test on RXF 393 renal, in the test with OVCAR-3 ovarian, with SNB-75 CNS and with HCT-15 colon was more than 100 µM throughout.
Consider `O=C1/C(=C/c2ccc(Cl)cc2)Oc2cc(O)ccc21`, for which the TGI in the test with SW-620 colon was more than 100 µM; in the test on SK-OV-3 ovarian, 78.8 µM; with MOLT-4 leukemia it was 48.1 µM; in the test with MDA-MB-435, more than 100 µM; in the test on 786-0 renal, more than 100 µM; in the test on RXF 393 renal, more than 100 µM. Moreover, the TGI in the test on OVCAR-3 ovarian is 96.1 µM; with SNB-75 CNS, more than 100 µM; in the test on HCT-15 colon, more than 100 µM.
For the molecule `Cn1c(-c2ccc[se]2)ccc1-c1ccc(C=O)[se]1`, the TGI was more than 51.6 µM in the test with SW-620 colon; 42.3 µM with SK-OV-3 ovarian; more than 100 µM in the test with MOLT-4 leukemia; more than 100 µM in the test with MDA-MB-435; more than 100 µM with 786-0 renal; 7.14 µM in the test with RXF 393 renal. Moreover, the results for the TGI in the test on OVCAR-3 ovarian, in the test on SNB-75 CNS and in the test on HCT-15 colon were 5.71 µM, more than 65.1 µM and more than 100 µM, respectively.
With `Clc1cc(-c2ccccc2)nc(Nc2nc3ccccc3[nH]2)n1`, the TGI was 22.2 µM in the test with SW-620 colon; more than 100 µM in the test with OVCAR-5 ovarian; more than 100 µM in the test on SK-OV-3 ovarian; more than 100 µM in the test on MOLT-4 leukemia; 83.4 µM in the test with MDA-MB-435; 34.2 µM in the test with 786-0 renal. Further, the TGI is 19.1 µM in the test with RXF 393 renal, more than 100 µM with SNB-75 CNS and 22 µM with HCT-15 colon.
As to `COc1ccc2c(c1)CC[C@@H]1C2CC[C@]2(C)C(=O)N(CCN(C)C)C(=O)CC12` (stereo not given in full), the TGI in the test with SW-620 colon, in the test with OVCAR-5 ovarian, in the test with SK-OV-3 ovarian, with MOLT-4 leukemia, with MDA-MB-435 and in the test on 786-0 renal was more than 100 µM in each case. For the same molecule, the TGI in the test with RXF 393 renal, with OVCAR-3 ovarian and in the test with SNB-75 CNS was more than 100 µM throughout.
